Legend:
GST/SHP-1 fusion protein = target: T1, GST/SHP-1 fusion protein (Mus musculus, UniProt P29351); experiment: Reversibility of SHP-1 inhibition (washing of bead-bound GST/SHP-1); format: biochemical; settings: preincubated with inhibitor, then washed
T1 construct: made in house
From the text: The beads were then washed 3 times in Tris buffer or without washing prior to in vitro PTPase assays.

[1] = cited from earlier work
[2] = target: T2, intracellular Flag-PRL-2 in WM9 cells (Homo sapiens, UniProt Q12974); experiment: PTPase activity of anti-Flag immunocomplexes from WM9 transfectants; format: cell-based; settings: treated 5 minutes
T2 construct: expressed in transfected cells; host or cells: WM9 human melanoma cells
Description: FIG. 6C. Sodium stibogluconate inactivates intracellular PRL-2 in WM9 human melanoma cells. A. Relative PTPase activities of anti-Flag immunocomplexes from WM9 cells transfected with the control vector (V) or Flag-PRL-2 expression construct and then treated with different amounts of sodium stibogluconate for 5 minutes B. Relative amounts of Flag-PRL-2 in the immunocomplexes as determined by SDS-PAGE/Western blotting. C. Relative PTPase activities of anti-MKP1 immunocomplexes from WM9 cells treated with different amounts of sodium stibogluconate for 5 minutes. Relative amounts of MKP1 in the immunocomplexes as determined by SDS-PAGE/Western blotting.
Flag-PRL-2 protein was detected in anti-Flag immunocomplexes from WM9 cells tranfected with an expression construct of Flag-PRL-2 but not in those from vector transfectants expected.

TF-1 cells = experiment: Proliferation of TF-1 cells with GM-CSF and IFNα (MTT); format: cell-based, human; settings: at 50 μg/ml; GM-CSF 5-40 ng/ml
Description: FIG. 7 illustrates that sodium stibogluconate augments the opposite effects of GM-CSF and IFNα on TF-1 cell growth: A. Proliferation of TF-1 cells cultured in the presence of various amounts of GM-CSF and with or without sodium stibogluconate for three days was measured by MTT assays; B. Proliferation of TF-1 cells cultured in the presence of GM-CSF (50 ng/ml) and various amounts of IFNα with or without sodium stibogluconate (50 μg/ml) for three days was measured by MTT assays; C. The results in B shown as percentage inhibition of cell growth; D. Proliferation of TF-1 cells in the presence of GM-CSF (20 ng/ml) and various amounts of sodium stibogluconate for 6 days was measured by MTT assays; E. Proliferation of TF-1 cells in the presence of GM-CSF (20 ng/ml)/IFNα (1,000 u/ml) and various amounts of sodium stibogluconate for 6 days was measured by MTT assays.
The murine hematopoietic cell line Baf3 was maintained in RPMI 1640 medium supplemented with 10% fetal calf serum (FCS) and murine IL-3 (20 units/ml) as described previously. Human myeloid cell line TF-1 was maintained in RPMI 1640 supplemented with 10% FCS and 40 ng/ml of recombinant human GM-CSF as described previously. […] The cell numbers in proliferation assays were determined by an MTT assay or by microscopic cell counting as indicated.

Baf3 cells = experiment: IL-3-induced proliferation of Baf3 cells; format: cell-based, murine; settings: at 1,000 μg/ml
Description: The murine hematopoietic cell line Baf3 was maintained in RPMI 1640 medium supplemented with 10% fetal calf serum (FCS) and murine IL-3 (20 units/ml) as described previously. Human myeloid cell line TF-1 was maintained in RPMI 1640 supplemented with 10% FCS and 40 ng/ml of recombinant human GM-CSF as described previously. For cell proliferation assays, cells were washed in 10% FCS medium twice, resuspended in 10% FCS medium, incubated at 37° C. for 16 hours and then cultured at 37° C. in 10% FCS medium containing various amounts of cytokines, sodium stibogluconate, or PSbT for 3-6 days as indicated. The cell numbers in proliferation assays were determined by an MTT assay or by microscopic cell counting as indicated.

U266 cells = experiment: Apoptotic cells by Annexin V/propidium iodide assay; format: cell-based, human; settings: sodium stibogluconate 100 μg/ml, IFNα 1000 u/ml, 3 days, control 8%
Description: Detection of apoptotic cells by Annexin V/propidium iodide assay. Annexin V staining of exposed membrane phospholipid phosphatidylserine (PS) was done using the Annexin V assay kit (Pharmingen, San Diego, Calif.). Briefly, U266 or WM9 cells were cultured in the 10% FCS RPMI 1640 medium in the absence or presence of sodium stibogluconate, IFNα, or both for 3 days. Cells were then washed in PBS twice and stained in binding buffer (10 mM Hepes, pH 7.4; 140 mM NaCl; 2.5 mM CaCl2) containing Annexin V-FITC and propidium iodide for 15 min. The reaction was stopped by adding 10 volumes of binding buffer and analyzed by FACS (Becton Dickinson Facsvantage) or fluorescent microscopy.

[3] = tested on: DU145 human prostate carcinoma xenografts; experiment: Xenografts of human prostate carcinoma in nude mice, tumor volume; format: in vivo; settings: day 25, IFNα 500,000 U s.c. daily, sodium stibogluconate 12 mg Sb s.c. daily, alone or combined
From the text: FIG. 11 illustrates that sodium stibogluconate appears to synergize with IFNα against WM9 human melanoma tumors in nude mice. IFNα or both on the growth of xenografts of human melanoma cell line WM9 and human prostate carcinoma cell line DU-145 in athymic nude mice. Nude mice of 4 weeks old were inoculated subcutaneously (s.c.) with WM9 human melanoma cells (3×10^6 cells/site) (A) or DU-145 human prostate cancer cells (2×10^6 cells/site) (B) on day 0. Starting on day 2, the mice were subjected to no treatment (Control) or treatment with IFNα (500,000 U, s.c., daily), sodium stibogluconate (12 mg, s.c., daily) or both (Combo). Tumor volume in the nude mice (4 mice/group, 2 tumors/mouse) was measured on the days as indicated. Tumor volume was calculated by the equation: (length×width^2)/2 to compare tumor growth rates. All mice survived by the end of the experiment. […]
For each of the cell lines, each of 16 mice received subcutaneous injection at the chest area of 3×10^6 cells/site (WM9) or 2×10^6 cells/site (DU145), two sites/mouse, on day 0. […] Tumor size was measured with a caliper to determine the two perpendicular diameters of each tumor. Tumor volume was calculated using the method of the NCI (length×width^2 in millimeters/2=volume in cubic millimeters).

T2 sequence (Q12974 whole entry): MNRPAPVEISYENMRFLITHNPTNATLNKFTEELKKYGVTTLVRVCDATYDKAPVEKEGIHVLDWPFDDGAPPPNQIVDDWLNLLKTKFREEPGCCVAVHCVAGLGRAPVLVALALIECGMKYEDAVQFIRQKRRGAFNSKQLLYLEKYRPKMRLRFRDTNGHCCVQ
T1 sequence (P29351 whole entry, the tested form may be a part): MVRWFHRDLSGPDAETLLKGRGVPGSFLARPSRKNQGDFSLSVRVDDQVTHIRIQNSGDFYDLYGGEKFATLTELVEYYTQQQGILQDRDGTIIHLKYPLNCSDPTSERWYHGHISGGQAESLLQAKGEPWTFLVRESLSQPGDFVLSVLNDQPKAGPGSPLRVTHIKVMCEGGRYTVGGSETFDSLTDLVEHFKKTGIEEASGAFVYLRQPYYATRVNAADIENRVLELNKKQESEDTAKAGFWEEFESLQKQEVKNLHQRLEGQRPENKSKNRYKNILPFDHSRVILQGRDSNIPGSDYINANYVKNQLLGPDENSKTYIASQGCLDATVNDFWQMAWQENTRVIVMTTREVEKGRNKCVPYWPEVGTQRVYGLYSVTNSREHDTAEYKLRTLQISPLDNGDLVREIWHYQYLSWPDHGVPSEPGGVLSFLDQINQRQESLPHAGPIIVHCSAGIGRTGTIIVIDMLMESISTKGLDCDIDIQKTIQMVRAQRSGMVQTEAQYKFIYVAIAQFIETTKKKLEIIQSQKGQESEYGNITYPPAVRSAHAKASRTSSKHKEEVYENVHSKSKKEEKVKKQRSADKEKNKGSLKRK

Row | Compound | reversibility of SHP-1 inhibition (GST/SHP-1 fusion protein) | blood levels, of peak value ([1]; in 16 hours) | excreted (renal clearance) ([1]; in the first 6 hours) | serum levels ([1]; standard dosage 10-20 mg/kg/day) [ng/mL] | PTPase activity of Flag-PRL-2 immunocomplexes from treated WM9 transfectants [2] | GM-CSF-induced proliferation of TF-1 cells (TF-1 cells) | IL-3-induced Baf3 growth (Baf3 cells) | percentage of apoptotic cells (U266 cells) [%] | average tumor volume, of the control [3]
1 | O.O.O.O.O.O.O.O.O.O=C([O-])[C@@H]1[O][Sb]2([O-])([O][Sb]34([OH])[O][C@H]([C@H](O)CO)[C@H]([O]3)[C@H](C(=O)[O-])[O]4)[O][C@H]([C@H](O)CO)[C@@H]1[O]2.[Na+].[Na+].[Na+] [sodium stibogluconate] | stable complexes | around 1% | more than 80% | ≥ 10000 | only low levels of PTPase activity | augmented | suppressed | – | –
2 | IFNα | – | – | – | – | – | – | – | 16 | approximately 70%

From patent US7744867B2, “PTPase inhibitors and method of using same” (The Cleveland Clinic Foundation, priority 2001, dated 2010)
